Structures are written as SMILES. Values after ≈ are worked out from the molar mass of the structure shown.

The results in this text go back to patent US20140205654A1, “LIPOSOMAL VANCOMYCIN FOR THE TREATMENT OF MRSA INFECTIONS” (CEDARS-SINAI MEDICAL CENTER, priority 2011, published 2014).

Common to all, as to assay type: cell-based
The subject of one assay is MRSA 78. As to the kind of experiment: MIC by broth dilution. Particulars: Staphylococcus aureus, 24 h, read-out: Vancomycin MIC. The protocol: (§1) The MICs of free and liposomal antibiotics for all strains were determined by the broth dilution technique. Briefly, serial dilutions of free- or liposome-encapsulated antibiotic from 20 to 0.3 μg/ml were prepared. For bacterial suspensions, frozen stocks of MRSA were streaked on sheep blood agar plates. Single colonies were inoculated into fresh media and shaken for 20 hr at 37° C. The overnight bacteria were diluted and added to 96-well plates (Becton Dickinson) to achieve an approximate concentration of 1×10^5. The inocula were confirmed by plating on agar. The 96-well plates were then incubated with or without shaking at 37° C., and the lowest concentration of antibiotic formulations that inhibited visible growth of bacteria was determined after 24 hours (MIC). Incubation of the plates with shaking (at 200 rpm) increased the consistency of MIC measurement for the liposomal preparations. For determination of MBC, the broths used for MIC determination were plated on agar, and the first dilution at which 99.9% of the original inocula were killed was identified. All MIC and MBC assays were performed at least three times.

A further assay concerns MRSA 79. As to the kind of experiment: MIC by broth dilution. Particulars: Staphylococcus aureus, 24 h, read-out: Vancomycin MIC. The protocol:
as §1

A further assay has as its system MRSA 80. As to the kind of experiment: MIC by broth dilution. Particulars: Staphylococcus aureus, 24 h, read-out: Vancomycin MIC. The protocol: as §1
A further assay has as its system MRSA 81. As to the kind of experiment: MIC by broth dilution. Particulars: Staphylococcus aureus, 24 h, read-out: Vancomycin MIC. The protocol:
as §1

The subject of another assay is MRSA 82. Briefly: MIC by broth dilution. Particulars: Staphylococcus aureus, 24 h, read-out: Vancomycin MIC. The protocol: as §1
The next assay has as its system MRSA 83. As to the kind of experiment: MIC by broth dilution. Particulars: Staphylococcus aureus, 24 h, read-out: Vancomycin MIC. The protocol: as §1
Another assay concerns MRSA strain ATCC 43300. As to the kind of experiment: MIC by broth dilution. Conditions: Staphylococcus aureus, 24 h, read-out: Vancomycin MIC. The protocol:
as §1

Assay [1] has as its system MRSA strain LAC. Briefly: MIC by broth dilution. Conditions: Staphylococcus aureus, 24 h, read-out: Vancomycin MIC. The protocol: as §1
Assay [2] concerns MRSA strain NRS-35. As to the kind of experiment: MIC by broth dilution. Conditions: Staphylococcus aureus, 24 h, read-out: Vancomycin MIC. The protocol:
as §1

The test system of assay [3] is MRSA strain LAC. As to the kind of experiment: MBC determination. Particulars: Staphylococcus aureus, read-out: Vancomycin MBC. The protocol: as §1
The test system of assay [4] is MRSA strain NRS-35. Briefly: MBC determination. Conditions: Staphylococcus aureus, read-out: Vancomycin MBC. The protocol: as §1

In the case of `CN[C@H](CC(C)C)C(=O)N[C@H]1C(=O)N[C@@H](CC(N)=O)C(=O)N[C@H]2C(=O)N[C@H]3C(=O)N[C@H](C(=O)N[C@H](C(=O)O)c4cc(O)cc(O)c4-c4cc3ccc4O)[C@H](O)c3ccc(c(Cl)c3)Oc3cc2cc(c3O[C@@H]2O[C@H](CO)[C@@H](O)[C@H](O)[C@H]2O[C@H]2C[C@](C)(N)[C@H](O)[C@H](C)O2)Oc2ccc(cc2Cl)[C@H]1O` [Free Vancomycin, Vancomycin], the MIC in the assay on MRSA 78 was 1.25 µg/mL (≈ 0.863 µM); with MRSA 79, 1.25 µg/mL (≈ 0.863 µM); in the assay on MRSA 80, 1.25 µg/mL (≈ 0.863 µM); with MRSA 81, 1.25 µg/mL (≈ 0.863 µM); with MRSA 82 it was 2.5 µg/mL (≈ 1.73 µM); in the assay on MRSA 83 it was 1.25 µg/mL (≈ 0.863 µM). Moreover, the results for the minimum inhibitory concentration (MIC) in the assay with MRSA strain ATCC 43300, in the assay on MRSA strain LAC [1] and in the assay with MRSA strain NRS-35 [2] were 1.25 to 2.5 µg/mL (≈ 0.863 to 1.73 µM), 1.25 to 2.5 µg/mL (≈ 0.863 to 1.73 µM) and 2.5 µg/mL (≈ 1.73 µM), respectively. Besides, the MBC in the assay on MRSA strain LAC [3] is 2.5 µg/mL (≈ 1.73 µM); with MRSA strain NRS-35 [4], 2.5 to 5 µg/mL (≈ 1.73 to 3.45 µM).
